In patent US7906491B2 (Univisitair Medisch Centrum Utrecht, priority 2002, dated 2011):

Experiments:
Assay type in all cases: cell-based
Rap1 = Rap1 activation assay (read-out for Epac) in NIH3T3-A14-Epac1 cells; details: 15 min
Description: (§1) Upper panel: NIH3T3-A14-Epac1 cells were treated for 15 min with 8-Br-cAMP, and cell lysates were analyzed for activation of Rap1 and phosphorylation of CREB. Lower panel: NIH3T3-A14-Epac1 cells were treated in duplicate for 15 min with increasing concentrations of 8-pCPT-2′-O-Me-cAMP. Cells were lysed and equal amounts of cell lysate were incubated with precoupled GST-RalGDSRBD and Rap1 was assayed by immunoblotting with Rap1 antibody.
(§2) Therefore, 8-CPT-2′-O-Me-cAMP was tested in NIH3T3-A14-Epac1 cells for the activation of Epac, using Rap1 as a read-out, and of PKA, using phosphorylation of the common PKA substrate CREB 29 as a read-out.
NIH3T3-A14 cells, stably expressing Epac1, were grown in DMEM with 10% fetal calf serum and 2 μg/ml puromycin. NIH-OVCAR3 (Ovcar3) cells were maintained in RPMI with 10% fetal calf serum. Transient transfection of Ovcar3 cells was performed using the FuGENE 6 transfection reagent (Roche Diagnostics, Mannheim, Germany) according to the manufacturer's procedures, using 6 μg total DNA including a CMV-luciferase plasmid (0.2 μg).
Rap activation assays were performed as described previously (16-18). Briefly, cells were lysed in lysis buffer containing 10% glycerol, 1% Nonidet P-40, 50 mM Tris-Cl pH7.5, 200 mM NaCl, 2mM MgCl2, 1 μM leupeptin, 0.1 μM aprotinin, 5 mM NaF, 1 mM NaVO3. Lysates were clarified by centrifugation and incubated with GST-tagged RalGDS-RBD pre-coupled to glutathione beads to specifically pull down the GTP-bound forms of Rap1. Samples were incubated for 1 hr at 4° C. while tumbling. Beads were washed four times in lysis buffer, and the remaining fluid was removed with an insulin syringe. Proteins were eluted with Laemmli sample buffer and analyzed by sodium dodecyl sulphate (SDS)-polyacrylamide gel electrophoresis and Western blotting using Rap1 antibodies. As a control, Rap1 levels in whole cell lysates were determined.

CREB = CREB phosphorylation (read-out for PKA) in NIH3T3-A14-Epac1 cells; details: concentration as high as 100 μM
Description: as §1, §2
Antibodies against phosphorylated CREB (directed against phosphorylated Serl33) were obtained from Cell Signalling (Beverly, Mass., USA), and antibodies against K-Rev/Rap1 and polyclonal anti-HA were obtained from Santa Cruz Biotechnology (Santa Cruz, Calif., USA). The following inhibitors and stimuli were used at concentrations indicated, unless stated otherwise: RGD peptide (100 μM) and H-89 (10 μM) was obtained from Biomol Research Laboratories Inc. (Plymouth Meeting, Pa., USA). 8-Br-cAMP (1 mM) was obtained from BIOLOG Life Science Institute (Bremen, Germany). TPA (12-O-tetradecanoylphorbol-13-acetate) was obtained from Sigma (Steinheim, Germany) and was used at a concentration of 100 ng/ml. […]

Ovcar3 cells = assay: Adhesion of Ovcar3 cells to poly-L-lysine (integrin-independent); details: FIG. 8
Description: Upper panel: a βl integrin-blocking peptide containing the RGD sequence present in fibronectin inhibits 8-pCPT-2′-O-Me-cAMP-induced cell adhesion. Ovcar3 cells were pre-treated for 20 minutes with RGD-peptide (100 μM) where indicated, and seeded in wells with or without 8-pCPT-2′-O-Me-cAMP. Cells were allowed to adhere for 1 h. […] Ovcar3 cells were seeded onto poly-L-lysine-coated plates. At various time points, adherent cells were quantified.
24-well plates were coated overnight with 2 μg/ml fibronectin (Sigma, St. Louis, Mo., USA) in sodium bicarbonate buffer (Sigma, St. Louis, Mo., USA). […] Cells were centrifuged, counted and resuspended at 3×10^5 cells/ml in serum-free RPMI with 0.5% BSA. […] Adherent cells were lysed in luciferase lysis buffer (15% glycerol, 25 mM Tris-phosphate pH 7.8, 1% Triton X-100, 8 mM MgCl2, 1 mM DTT) at 4° C. for 30 min and units of luciferase activity were quantified with addition of equal volume of luciferase assay buffer (25 mM Tris-phosphate pH 7.8, 8 MM MgCl2, 1 mM DTT, 1 mM ATP pH 7, 1 mM luciferin) using a luminometer (Lumat LB9507; Berthold Technologies, Belgium). […] Specific adhesion (%) was determined (counts in cells bound/counts in total input×100) and plotted either directly or relative to the basal adhesion of HA vector-transfected cells. […]

## CO[C@@H]1[C@@H]2OP(=O)(O)OC[C@H]2O[C@H]1n1c(Sc2ccc(Cl)cc2)nc2c(N)ncnc21 [Compound I-007, 8-(4-chloro-phenylthio)-2′-O-methyladenosine-3′,5′-cyclic monophosphate]
Rap1; 8-Br-cAMP 1 mM
  activation of Rap1: induced the activation of Rap1 only
Rap1; dose-response
  concentration at which Rap1 is already activated: 10 µM
CREB
  CREB phosphorylation: did not induce CREB phosphorylation
Ovcar3 cells
  integrin-independent adhesion to poly-L-lysine: did not increase
